According to ChEMBL document CHEMBL1143860, “Synthesis and biological activity of phosphatidylinositol-3,4,5-trisphosphorothioate” (Bioorg Med Chem Lett, 2008):
The source made the active and inactive calls. The rule behind the calls is not given here.

Tested on: A6
Experiment: Agonist activity at […] expressed in A6 cells assessed as increase in insulin-stimulated sodium transport at 50 uM
Assay type: functional, cell-based

For CCCCCCCCCCCCCCCC(=O)OC[C@H](COP(=O)(O)O[C@H]1[C@H](O)[C@@H](OP(O)(O)=S)[C@H](OP(O)(O)=S)[C@@H](OP(O)(O)=S)[C@H]1O)OC(=O)CCCCCCCCCCCCCCC, the Activity was “Active”.
